These results are taken from patent US6649654B1, “Methods for identifying and using IKK inhibitors” (The Regents of the University of California, priority 1999, dated 2003).

“Also recorded” adds a separate entry of the source.

One assay addresses T1, Sp1 (Homo sapiens, UniProt P08047).
T1 construct: endogenous in cells; host or cells: Jurkat (PGA1); cells of the 15dPGJ2 experiment not clearly stated
Kind of assay: Sp1 DNA binding activity. It counts as cell-based.

Assay [1] addresses T2, IKK (Homo sapiens, UniProt O14920+O15111). Put plainly: In vitro kinase assay of IKK immunoprecipitated from TNFα-stimulated HeLa cells. It counts as biochemical. The arrangement: Endogenous IKK was immunoprecipitated from TNFα-stimulated HeLa cells; endogenous in cells; host or cells: HeLa. As to conditions: for IC50: IKK immunoprecipitated from TNFα-stimulated HeLa cells. Here is the method: (§1) Cell lysates were incubated with anti-IKKα (Pharmingen), anti-HA (12CA5; Pharmingen), anti-JNK1 (333.8; Pharmingen), or anti-p38 (New England Biolabs) for 2 hours. Then, 15 μl protein A-Sepharose (Sigma) were added and the mixture was allowed to incubate for 1 hour. After extensive washing, kinase assays were performed as known in the art (See e.g., DiDonato et al., Nature 388:548-554 [1997]). Endogenous IKK, HA-tagged IKKα, endogenous JNK1, and p38 activities were determined with GST-1κBα(1-54), GST-c-Jun(1-79), and GST-ATF2 as substrates.
Endogenous IKK was immunoprecipitated from TNFα-stimulated HeLa cells and the kinase activity determined in the presence of different concentrations of PGA1 (the results of which are shown in FIG. 2B) or 15dPGJ2 (the results of which are shown in FIG. 2C).
(§2) In this Example, experiments to determined the effects of arachidonic acid and its metabolites on IKK activity in vivo and in vitro are described. HeLa cells were treated with 50 μM AA, PGA1, PGB2, PGD2, PGE1, PGE2, PGF1α, or thromboxane B2 (T×B2), 1 μM LTB4, or 5 μM 15dPGJ2, for 2 hours in RPMI containing 10% FCS, and stimulated with TNFα for 10 minutes. Cell lysates were then assayed for endogenous IKK activity and recovery. In this FIGURE, “control” indicates unstimulated cells, and “-” indicates treatment with diluent alone. In addition, IKK was immunoprecipitated from TNFα-stimulated HeLA cells and incubated in vitro with 100 μM AA, PGA1, PGB2, PGD2, PGE1, PGE2, PGF1α, or T×B2, 2 μM LTB4 or 10 μM 15dPGJ2, followed by kinase assay and immunoblot analysis. In this FIGURE, “control” indicates to unstimulated cells, and “-”indicates 1% ethanol.
Many protein kinase inhibitors compete with binding of ATP, but preincubation in the presence of increasing concentrations of ATP had no effect on inhibition of IKKβ by 15dPGJ2, as indicated in FIG. 6A. […] The pellets were rinsed and kinase activity was measured.

The next assay deals with T3, Oct1 (Homo sapiens, UniProt P14859).
T3 construct: endogenous in cells; host or cells: Jurkat (PGA1); cells of the 15dPGJ2 experiment not clearly stated
T3 sequence (P14859 1-743): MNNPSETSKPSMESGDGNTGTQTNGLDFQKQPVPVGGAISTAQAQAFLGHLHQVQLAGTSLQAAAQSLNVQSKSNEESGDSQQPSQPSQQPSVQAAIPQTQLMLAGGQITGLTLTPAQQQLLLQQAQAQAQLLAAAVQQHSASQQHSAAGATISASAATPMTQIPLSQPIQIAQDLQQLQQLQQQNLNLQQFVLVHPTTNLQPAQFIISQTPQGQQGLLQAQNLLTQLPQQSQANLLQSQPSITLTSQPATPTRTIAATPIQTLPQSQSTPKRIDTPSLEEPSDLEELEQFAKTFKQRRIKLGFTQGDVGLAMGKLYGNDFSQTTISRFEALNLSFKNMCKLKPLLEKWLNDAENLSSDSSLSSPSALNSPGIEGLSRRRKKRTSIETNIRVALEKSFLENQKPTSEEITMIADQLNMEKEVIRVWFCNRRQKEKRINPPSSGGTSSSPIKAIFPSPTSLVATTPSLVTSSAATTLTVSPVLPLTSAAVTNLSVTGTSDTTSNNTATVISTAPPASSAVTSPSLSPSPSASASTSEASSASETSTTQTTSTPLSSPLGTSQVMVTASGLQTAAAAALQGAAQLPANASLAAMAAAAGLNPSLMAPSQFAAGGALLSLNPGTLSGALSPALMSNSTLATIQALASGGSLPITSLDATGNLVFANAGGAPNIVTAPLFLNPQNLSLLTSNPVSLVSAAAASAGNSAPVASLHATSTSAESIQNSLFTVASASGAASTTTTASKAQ
Put plainly: Oct1 DNA binding activity. It counts as cell-based.

Assay [2] concerns the target T2, IKK. Put plainly: Endogenous IKK activity (kinase assay) in treated, stimulated HeLa cells. Format: cell-based. Set-up: Endogenous IKK was immunoprecipitated from TNFα-stimulated HeLa cells; endogenous in cells; host or cells: HeLa. As to conditions: for effect on IKK activity: HeLa cells stimulated with TNFα (PGA1: IL-1 or TNFα). Here is the method: Cells used in the experiments described herein were cultured in either RPMI 1640 (Jurkat cells) or DMEM (HeLa and COS cells), supplemented with 10% FBS and antibiotics. Cells were stimulated with either 25 ng/ml TPA, 20 ng/ml recombinant TNFα, or 10 ng/ml interleukin 1β (Sigma). PGA1, 15dPGJ2, T×B2, LTB4, AA and other PGs (Cayman) dissolved in ethanol were used as well, as known in the art (See e.g., Rossi et al., 94:746-750 [1997]). Controls received equal amounts of ethanol. Transfections were performed using Lipofectamine Plus (GIBCO) for HeLa and COS cells and DEAE-dextran (Sigma) for Jurkat cells. Xpress-tagged NIK, Xpress-tagged MEKK1, HA-tagged IKKα, and HA-tagged IKKβ were also used (See e.g., Zandi et al., Science 281:1360-1363 [1998]; and Delhase et al., Science 284:309-313 [1999]). COX2 and cPLA2 expression vectors were obtained from Dr. L. Feng (See also, Hirose et al., J. Am. Soc. Nephrol., 9:408-416 [1998]). PGD synthase was cloned from HT29 colon carcinoma cell line cDNA by PCR and subcloned into a pCDNA3 vector. Cells were lysed in buffer B (50 mM Tris-HCl, pH 7.5, 400 mM NaCl, 1 mM EDTA, 1 mM EGTA, 1% Triton, 0.5% NP-40, 10% glycerol, and supplemented with 20 mM β-glycerophosphate, 10 mM PNPP, […] 1 mM PMSF, 20 μg/ml aprotinin, 2.5 μg/ml leupeptin, 8.3 μg/ml bestatin, 1.7 μg/ml pepstatin, and 2 mM DTT).
as §1, §2

T1 sequence (P08047 whole entry): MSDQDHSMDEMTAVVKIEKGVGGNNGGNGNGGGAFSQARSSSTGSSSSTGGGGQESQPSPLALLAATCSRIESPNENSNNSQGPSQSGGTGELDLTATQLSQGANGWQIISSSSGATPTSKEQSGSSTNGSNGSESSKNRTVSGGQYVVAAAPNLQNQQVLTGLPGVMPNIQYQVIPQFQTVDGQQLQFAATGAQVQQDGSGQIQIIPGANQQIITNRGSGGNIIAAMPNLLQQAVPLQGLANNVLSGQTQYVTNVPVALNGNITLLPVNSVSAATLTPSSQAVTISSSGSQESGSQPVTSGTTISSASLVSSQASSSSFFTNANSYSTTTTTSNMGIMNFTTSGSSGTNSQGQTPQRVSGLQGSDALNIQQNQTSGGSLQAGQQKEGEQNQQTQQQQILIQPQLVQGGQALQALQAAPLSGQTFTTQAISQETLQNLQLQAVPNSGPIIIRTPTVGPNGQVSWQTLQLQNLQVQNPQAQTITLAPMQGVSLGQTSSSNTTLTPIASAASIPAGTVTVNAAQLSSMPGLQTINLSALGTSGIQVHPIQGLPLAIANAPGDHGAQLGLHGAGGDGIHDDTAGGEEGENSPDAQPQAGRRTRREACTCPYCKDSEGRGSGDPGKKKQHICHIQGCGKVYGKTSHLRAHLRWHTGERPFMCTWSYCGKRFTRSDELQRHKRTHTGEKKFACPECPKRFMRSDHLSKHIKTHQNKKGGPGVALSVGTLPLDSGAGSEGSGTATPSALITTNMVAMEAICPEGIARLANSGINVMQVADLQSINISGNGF
T2 sequence (O14920 whole entry): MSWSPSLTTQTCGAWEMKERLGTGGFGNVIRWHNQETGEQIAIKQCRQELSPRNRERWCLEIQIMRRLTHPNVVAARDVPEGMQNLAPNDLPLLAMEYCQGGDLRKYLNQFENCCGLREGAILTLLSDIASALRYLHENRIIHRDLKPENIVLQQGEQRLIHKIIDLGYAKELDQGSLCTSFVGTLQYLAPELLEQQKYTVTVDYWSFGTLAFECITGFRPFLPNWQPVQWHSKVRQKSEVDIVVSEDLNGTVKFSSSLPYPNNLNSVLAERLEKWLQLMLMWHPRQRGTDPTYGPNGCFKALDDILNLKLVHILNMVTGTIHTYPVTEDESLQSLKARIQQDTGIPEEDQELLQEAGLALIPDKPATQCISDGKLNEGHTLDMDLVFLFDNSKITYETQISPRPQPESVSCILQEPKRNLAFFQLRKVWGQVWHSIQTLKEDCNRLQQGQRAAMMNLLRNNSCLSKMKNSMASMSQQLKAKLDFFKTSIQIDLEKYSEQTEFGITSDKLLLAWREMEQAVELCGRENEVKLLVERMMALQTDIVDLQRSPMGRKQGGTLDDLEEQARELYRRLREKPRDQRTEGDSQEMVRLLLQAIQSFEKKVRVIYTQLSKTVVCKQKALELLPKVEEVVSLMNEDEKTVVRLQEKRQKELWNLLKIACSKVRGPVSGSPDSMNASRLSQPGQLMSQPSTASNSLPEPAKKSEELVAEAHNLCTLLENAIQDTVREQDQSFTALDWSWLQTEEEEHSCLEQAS
T2 sequence (O15111 whole entry): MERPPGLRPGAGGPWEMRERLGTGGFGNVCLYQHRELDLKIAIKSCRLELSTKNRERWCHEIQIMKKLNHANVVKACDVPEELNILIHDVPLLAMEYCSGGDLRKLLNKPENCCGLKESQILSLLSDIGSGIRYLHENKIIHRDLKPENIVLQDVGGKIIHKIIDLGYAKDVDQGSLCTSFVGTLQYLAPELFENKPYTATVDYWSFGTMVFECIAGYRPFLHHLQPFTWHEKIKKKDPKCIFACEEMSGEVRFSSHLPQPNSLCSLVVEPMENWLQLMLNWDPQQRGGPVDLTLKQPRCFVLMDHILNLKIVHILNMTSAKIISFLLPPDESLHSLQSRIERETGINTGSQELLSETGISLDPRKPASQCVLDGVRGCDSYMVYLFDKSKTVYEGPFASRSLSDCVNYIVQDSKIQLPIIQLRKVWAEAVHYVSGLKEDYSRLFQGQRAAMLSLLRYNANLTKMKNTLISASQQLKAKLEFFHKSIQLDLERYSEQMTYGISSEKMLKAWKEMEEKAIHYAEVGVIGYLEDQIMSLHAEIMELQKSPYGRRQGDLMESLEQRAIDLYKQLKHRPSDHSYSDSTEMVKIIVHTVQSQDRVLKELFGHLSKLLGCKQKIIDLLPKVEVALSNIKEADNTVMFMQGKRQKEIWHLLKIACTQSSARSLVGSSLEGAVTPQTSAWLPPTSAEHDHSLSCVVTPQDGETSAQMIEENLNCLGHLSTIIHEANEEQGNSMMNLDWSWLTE
T2 sequence (Q9Y6K9 whole entry partner): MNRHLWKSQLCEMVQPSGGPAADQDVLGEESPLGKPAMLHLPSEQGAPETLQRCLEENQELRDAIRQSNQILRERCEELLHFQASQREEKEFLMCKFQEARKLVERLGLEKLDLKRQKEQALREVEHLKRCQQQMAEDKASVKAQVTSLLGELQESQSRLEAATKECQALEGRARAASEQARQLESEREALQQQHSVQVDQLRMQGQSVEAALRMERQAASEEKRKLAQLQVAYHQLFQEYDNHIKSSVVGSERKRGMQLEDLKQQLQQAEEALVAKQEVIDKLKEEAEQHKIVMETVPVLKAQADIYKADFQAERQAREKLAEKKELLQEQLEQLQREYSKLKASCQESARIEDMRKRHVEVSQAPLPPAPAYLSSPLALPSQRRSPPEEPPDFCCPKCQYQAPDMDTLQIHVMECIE

Turning to `CCCCC/C=C/C=C1/C(=O)C=C[C@@H]1C/C=C\CCCC(=O)O` [15dPGJ2, 15-deoxy-Δ^12-14-PGJ2], the “effect on Sp1 DNA-binding activity” value on Sp1 (15dPGJ2, data not shown) is given as “did not inhibit”. At IKK [1] (15dPGJ2 0-30 μM with or without ATP, 4° C., 30 minutes), the “effect of pre-incubation with increasing ATP on inhibition (ATP competition)” value was “had no effect; also recorded: not a competitive inhibitor of ATP binding”. Further, the IC50 is 7.08 µM against IKK [1] and 5.08 µM on IKK [2] (HeLa cells, TNFα, read-out: half-maximal inhibition of IKK activity). In addition, at Oct1 (15dPGJ2, data not shown), the “effect on Oct1 DNA-binding activity” value was “did not inhibit”. In addition, the “effect on IKK activity” value on IKK [2] is recorded as “inhibited”.
On to `CCCCC[C@H](O)/C=C/[C@H]1C=CC(=O)C1CCCCCCC(=O)O` (stereo partly shown) [PGA1, prostaglandin A1], for which the “effect on Sp1 DNA binding” value at Sp1 (PGA1 (120 μM), FIG. 1A) is on record as “did not inhibit; also recorded: No effects”. This compound also gave an IC50 against IKK [1] of 79.8 µM. Moreover, the “effect on Oct1 DNA binding” value at Oct1 (PGA1 (120 μM), FIG. 1A) is on record as “did not inhibit; also recorded: No effects”. Further, the “effect on IKK activity” value at IKK [2] is given as “inhibited”.
